Assay [1] has as its target T1, VHL (VBC complex: pVHL54-213, eloB1-104, eloC17-112) (Homo sapiens, UniProt P40337).
T1 construct: equimolar complex of pVHL54-213, eloB1-104 and; made in house; host or cells: E. coli
The assay is described as follows: Surface plasmon resonance (SPR) steady-state binding to immobilised biotinylated AviVBC. The protocol:
The KD of each compound to VHL was determined by surface plasmon resonance (SPR) experiments.
3. Protein expression, purification and biotinylation
The VHL E3 ligase is a multi-protein complex composed of five proteins: VHL protein (pVHL), elongin B (eloB), elongin C (eloC), Cullin-2 (Cul2) and Ring-box protein 1 (Rbx1).[3] Since the compounds developed in this work bind solely to the VHL protein, the VBC complex (equimolar complex of pVHL54-213, eloB1-104 and eloC17-112) was used in all experiments, as it can be readily expressed in E. coli with high yields,[4] while the full E3 ligase would require baculovirus-insect cells expression system.[5] The expression and purification of VBC was performed as described previously by our group[2] and employed directly in all NMR experiments.
For the surface plasmon resonance (SPR) experiments, a VBC complex containing an AviTagTM in the N-terminus of eloB (AviVBC) was purified using the same procedure described for VBC. The modified eloB/eloC expression plasmid was previously developed in-house by Dr. Michael Roy and kindly shared. The AviVBC complex was site-specifically biotinylated in the AviTag using the GST-BirA method previously described by […]
4. Surface plasmon resonance experiments
The SPR experiments were performed with a Biacore T200 instrument (GE Healthcare). All measurements were performed at 20 °C with buffer containing 10 mM HEPES, pH 7.5, 150 mM NaCl, 1 mM TCEP, 0.005% (v/v) Tween® 20 and 2% (v/v) dimethyl sulfoxide (DMSO). Biotinylated AviVBC (~0.5 μM) was immobilised at 22 °C onto a Series S sensor chip SA (GE Heathcare) to levels of approximately 3500-4000 response units […]
Solutions of each spy molecule were prepared in buffer at concentrations based on previous structure-activity relationship studies of VHL ligands (K D expected in the nanomolar range for structures like spy molecules 16 and 22, or in the milimolar range for spy molecules similar to 1 and 9). From this first screen, the binding affinities were roughly estimated using the Biacore T200 evaluation software (GE Healthcare), then measurements were repeated using concentrations above and below the KD obtained in the first round to generate better curves for fitting the data accurately. Contact and dissociation times varied across the different compounds tested, but in […]
dissociated from the surface in less than sixty seconds.
Data analysis was performed using the steady state responses of the double-referenced sensorgrams (raw data subtracted from blank and reference surface injections) obtained for each concentration tested. These responses were plotted against the respective concentrations and the data fitted to a 1: 1 binding model u sing the Biacore T200 evaluation software and the following equation: […]
Where Req is the steady-state response at a given concentration C. Deviations in Req were corrected by adding an ‘offset’ term to the equation. KD is the dissociation constant to be determined and RMAX is the maximum response expected for a given compound according to the equation below:
Where n is the stoichiometry of the interaction ( in this case, n = 1) and RProtein is the immobilization level of protein. MWCompound and MWProtein are the molecular weights of compound and protein, respectively. Sensorgrams and fitting parameters for all spy molecules can be found in section 7.
Background: SPR reads the build-up and loss of mass on a sensor chip optically.

Assay [2] has as its target T2, VHL (VBC complex), Hyp site (Homo sapiens, UniProt P40337).
T2 construct: equimolar complex of pVHL54-213, eloB1-104 and; made in house; host or cells: E. coli
As to the kind of experiment: 19F NMR competition experiment, displacement of spy molecule 19. Conditions: 19 at 50 μM, VHL at 1.0 μM. It is filed as binding. The protocol: Lastly, the utility and scope of using spy molecule 19 to quantify binding of competitors across a wide range of affinities was evaluated (Fig. 5). Five compounds were titrated against 19 at 50 μM and VHL at 1.0 μM. In all cases the displacement of the spy molecule was concentration-dependent and the Ki (inhibition constant) values were derived from the respective IC50 using a competitive binding model.[12] The measured binding affinities compared remarkably well with the respective values obtained by SPR across 4-log units. The same experiment was attempted with spy molecules 6 and 11 under the same conditions, and in these cases, the assay could not differentiate the binders as efficiently (ESI, ^† Fig. S2–S4), since this would require higher protein concentration.
6. Competition experiments by 19F NMR
As full measurements of R2 would be very time consuming, the competition experiments were performed using a single 19F CPMG experiment (decoupled) per sample with a fixed CPMG delay. To determine the best CPMG delay for a given spy molecule and assay condition, the procedure described in Figure S5 was developed based on the transverse relaxation rate equations.[7] By knowing the relaxation rates of the spy molecule free in solution and in presence of protein, the CPMG delay where the difference between the NMR peaks is maximum is hereon referred as dmax. The dmax for all the conditions tested for each spy molecule can be found in section 8, together with the respective values of R2 and C2.
Method for selecting the best CPMG delay for competition experiments. With the transverse relaxation rates of the spy molecule free in solution (R2F, resulting in the blue plot) and bound to protein (R2B, resulting in the red plot), the difference between the two curves is described by I(t)D (cyan curve). To obtain dmax, the delay where the difference curve reaches its maximum, the first derivative of I(t)D was obtained and equalled to 0, subsequently isolating t (CPMG filter). […]

Where [3] appears, read: SPR steady-state fit, supplement section 7, read-out: KD (Biacore T200 fit).
The mark [4] stands for this setting: SPR, 20 °C, steady-state 1:1 fit, footnote b values fitted because RMAX was not reached experimentally, read-out: K D, SPR.

Each structure is given as a SMILES string. Like-named read-outs stand apart in the source and are kept apart here.

On to `CC(C)(C)CC(=O)N1C[C@H](O)C[C@H]1C(=O)NCc1ccc(Br)c(C(F)(F)F)c1` [Compound 3], for which the values for the Kd in assay [1] (setting [3]) and in assay [1] (setting [4]) were 407 µM and 407 ± 5 µM, respectively. In assay [2], the “Displacement of spy molecule 19” value was “concentration dependent”.
Regarding `CC(=O)N1C[C@H](O)C[C@H]1C(=O)NCc1ccc(Br)cc1C(F)(F)F` [Compound 10], the Kd in assay [1] (setting [4]) was 1350 ± 94 µM. Also, in assay [2], the “Displacement of spy molecule 19” value is reported as “concentration dependent”.
For the compound `CC(=O)NC(C(=O)N1CC(O)CC1C(=O)NCc1ccc(Br)cc1C(F)(F)F)C(C)(C)C` (centres unmarked) [Compound 12], the “binding kinetics / dissociation rates by SPR” value in assay [1] (SPR) is given as “too high to be determined accurately”. Besides, the Kd in assay [1] (setting [3]) stood at 1.14 µM; in assay [1] (setting [4]), 1.14 ± 0.12 µM. For the same compound, in assay [2], the “Displacement of spy molecule 19” value is “concentration dependent”.
As for `O=C(NCc1ccc(Br)cc1)C1CC(O)CN1C(=O)CC(F)(F)F` (centres unmarked) [Compound 19], the Kd in assay [1] (setting [3]) was 145 µM; in assay [1] (setting [4]) it was 145 ± 29 µM.

The record behind these values is paper PMC6369734, “Spy vs. spy: selecting the best reporter for ^19F NMR competition experiments” (Chemical Communications (Cambridge, England), 2019).
